The source of these data is US7807673B2, “2-pyrimidinyl pyrazolopyridine ErbB kinase inhibitors” (GlaxoSmithKline LLC, priority 2005, dated 2010).

The term IC50 denotes the concentration that inhibits the measured activity by half. A higher IC50 goes with weaker potency in that assay.

Test [1] addresses T1, ErbB2 or EGFR.
T1 construct: enzymes purified from a baculovirus expression system
Put plainly: ErbB enzyme substrate phosphorylation assay (HTRF), Method B (enzyme pre-incubated with compound 1 hour). The class given is biochemical. To be noted: Table 1, enzyme Method B: enzyme mix incubated with compound 1 hour at 20° C., reaction started with substrate mix; class over ErbB2 or EGFR. The method in brief:
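Baculovirus-expressed kinase (0.8 nM EGFR or 10 nM ErbB2 in enzyme mix) phosphorylated biotinylated Peptide C (0.8 µM in substrate mix) with 20 µM ATP in substrate mix, MOPS pH 7.5, MnCl2, 90 min at 20 °C. Method A started with enzyme; Method B pre-incubated enzyme with compound 1 h at 20 °C. HTRF read-out; IC50 from 12-point curve (0.00027–47.6 µM), reported as pIC50.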

Test [2] relates to BT474 and HN5 tumor cell lines. Put plainly: Methylene blue growth inhibition assay (cellular Method A). The class given is cell-based. The note with it: Homo sapiens, BT-474 and HN5, 72 h; Table 2, Method A methylene blue, 3 days; class over BT474 and HN5. The method, then:
(§1) Human breast (BT474) and head and neck (HN5) were cultured in low glucose DMEM (Life Technologies 12320-032) containing 10% fetal bovine serum (FBS). Human colon tumor cells (Colo205) were cultured in DMEM (Invitrogen, 10564) containing 10% FBS. The SV40 transformed human mammary epithelial cell line to HB4a was transfected with either human H-ras cDNA (HB4a r4.2) or the human c-ErbB2 cDNA (HB4a c5.2). The HB4a clones were cultured in RPMI containing 10% FBS, insulin ([…]), hydrocortisone ([…]), supplemented with the selection agent hygromycin B ([…]). All lines were grown in a humidified incubator at 37° C. in 95% air, 5% CO2. Cells were harvested using trypsin/EDTA, counted using a haemocytometer, and plated in 100 microliters of the appropriate media, at the following densities, in a 96-well tissue culture plate (Falcon 3075): BT474 10,000 cells/well, HN5 3,000 cells/well. The next day, compounds were diluted in DMEM containing […] gentamicin, at twice the final required concentration, from 10 mM stock solutions in DMSO. 100 microliters/well of these dilutions were added to the 100 microliters of media currently on the cell plates. Medium containing 0.6% DMSO was added to control wells. Compounds diluted in DMEM were added to all cell lines. The final concentration of DMSO in all wells was 0.3%. Cells were returned to the incubator (37° C., […]) for 3 days. Medium was then removed by aspiration. Cell biomass was estimated by staining cells with 90 microliters per well methylene blue (Sigma M9140, 0.5% in 1:1 ethanol:water), and incubation at rt for at least 30 minutes. Stain was removed, and the plates rinsed by immersion in deionized water and air-dried. To release stain from the cells 100 microliters of solubilization solution was added (1% N-lauroyl sarcosine, Sodium salt, Sigma L5125, in PBS), and plates were shaken gently for about 30 minutes. Optical density at 620 nm was measured on a microplate reader. Percent inhibition of cell growth was calculated relative to vehicle treated control wells. Concentration of compound that inhibits 50% of control cell growth (IC50) was interpolated using nonlinear regression (Levenberg-Marquardt) and the equation, y=Vmax*(1−(x/(K+x)))+Y2, where “K” was equal to the IC50. Method B: Celltiter Glo® Growth Inhibition Assays

Test [3] has as its system Colo205 tumor cell lines. The test is described as above. The class given is cell-based. To be noted: Homo sapiens, COLO 205, 72 h, Table 3, Method A methylene blue, 3 days. The method, then: as §1

Take `CCN(CC)CCOc1cccc(Nc2nccc(-c3c(-c4cccc(NC(=O)Cc5cccs5)c4)nn4ccccc34)n2)c1` [Example 14, N-[3-(3-{2-[(3-{[2-(Diethylamino)ethyl]oxy}phenyl)amino]-4-pyrimidinyl}pyrazolo[1,5-a]pyridin-2-yl)phenyl]-2-(2-thienyl)acetamide]: in test [1], the “Activity (Method)” value is given as “+++ (B) (at least one pIC50 measurement of greater than 7 against either ErbB2 or EGFR)”. Also, the IC50 in test [2] and in test [3] was 0.1 to 1 µM each time.

On to `CN(C)CCOc1cccc(Nc2nccc(-c3c(-c4cccc(NC(=O)Cc5cccs5)c4)nn4ccccc34)n2)c1` [Example 15, N-[3-(3-{2-[(3-{[2-(Dimethylamino)ethyl]oxy}phenyl)amino]-4-pyrimidinyl}pyrazolo[1,5-a]pyridin-2-yl)phenyl]-2-(2-thienyl)acetamide], for which the “Activity (Method)” value in test [1] is “+++ (B) (at least one pIC50 measurement of greater than 7 against either ErbB2 or EGFR)”. The IC50 in test [2] and in test [3] was 0.1 to 1 µM throughout.

For `O=C(Cc1cccs1)Nc1cccc(-c2nn3ccccc3c2-c2ccnc(Nc3ccc4c(c3)CNCC4)n2)c1` [Example 16, N-(3-{3-[2-(1,2,3,4-Tetrahydro-7-isoquinolinylamino)-4-pyrimidinyl]pyrazolo[1,5-a]pyridin-2-yl}phenyl)-2-(2-thienyl)acetamide], the “Activity (Method)” value in test [1] is reported as “+++ (B) (at least one pIC50 measurement of greater than 7 against either ErbB2 or EGFR)”. Also, the IC50 in test [2] and in test [3] was 0.1 to 1 µM in each case.

Regarding `CN(C)Cc1cccc(Nc2nccc(-c3c(-c4cccc(NC(=O)Cc5ccsc5)c4)nn4ccccc34)n2)c1` [Example 24, N-(3-{3-[2-({3-[(Dimethylamino)methyl]phenyl}-amino)-4-pyrimidinyl]pyrazolo[1,5-a]pyridin-2-yl}phenyl)-2-(3-thienyl)acetamide], the “Activity (Method)” value in test [1] is “+++ (B) (at least one pIC50 measurement of greater than 7 against either ErbB2 or EGFR)”. For the same compound, the concentration for half-maximal inhibition (IC50) in test [2] and in test [3] was 0.1 to 1 µM throughout.

For `CN(C)Cc1cccc(Nc2nccc(-c3c(-c4cccc(NC(=O)Cc5c(F)cccc5F)c4)nn4ccccc34)n2)c1` [Example 25, 2-(2,6-Difluorophenyl)-N-(3-{3-[2-({3-[(dimethylamino)methyl]-phenyl}amino)-4-pyrimidinyl]pyrazolo[1,5-a]pyridin-2-yl}phenyl)acetamide], the “Activity (Method)” value in test [1] is on record as “++ (B) (at least one pIC50 measurement greater than 6 against either ErbB2 or EGFR but no measurement greater than pIC50 of 7)”. The results for the IC50 in test [2] and in test [3] were over 1 µM and 0.1 to 1 µM, respectively.

In the case of `CN(C)Cc1cccc(Nc2nccc(-c3c(-c4cccc(NC(=O)Cc5cccnc5)c4)nn4ccccc34)n2)c1` [Example 26, N-(3-{3-[2-({3-[(Dimethylamino)methyl]phenyl}amino)-4-pyrimidinyl]pyrazolo[1,5-a]pyridin-2-yl}phenyl)-2-(3-pyridinyl)acetamide], the “Activity (Method)” value in test [1] is given as “++ (B) (at least one pIC50 measurement greater than 6 against either ErbB2 or EGFR but no measurement greater than pIC50 of 7)”. For the same compound, the IC50 in test [2] and in test [3] was over 1 µM each time.

For `CN(C)Cc1cccc(Nc2nccc(-c3c(-c4cccc(NC(=O)Cc5ccccn5)c4)nn4ccccc34)n2)c1` [Example 27, N-(3-{3-[2-({3-[(Dimethylamino)methyl]phenyl}amino)-4-pyrimidinyl]pyrazolo[1,5-a]pyridin-2-yl}phenyl)-2-(2-pyridinyl)acetamide], the “Activity (Method)” value in test [1] is recorded as “++ (B) (at least one pIC50 measurement greater than 6 against either ErbB2 or EGFR but no measurement greater than pIC50 of 7)”. For the same compound, the IC50 in test [2] and in test [3] was over 1 µM throughout.

Turning to `Cc1cc(CC(=O)Nc2cccc(-c3nn4ccccc4c3-c3ccnc(Nc4cccc(CN(C)C)c4)n3)c2)on1` [Example 28, N-(3-{3-[2-({3-[(Dimethylamino)methyl]-phenyl}amino)-4-pyrimidinyl]pyrazolo[1,5-a]pyridin-2-yl}phenyl)-2-(3-methyl-5-isoxazolyl)acetamide], the “Activity (Method)” value in test [1] is “+++ (B) (at least one pIC50 measurement of greater than 7 against either ErbB2 or EGFR)”. Also, the IC50 in test [2] and in test [3] was over 1 µM in each case.

As to `Cc1sc(-c2ccccc2)nc1CC(=O)Nc1cccc(-c2nn3ccccc3c2-c2ccnc(Nc3cccc(CN(C)C)c3)n2)c1` [Example 29, N-(3-{3-[2-({3-[(Dimethylamino)methyl]phenyl}amino)-4-pyrimidinyl]pyrazolo[1,5-a]pyridin-2-yl}phenyl)-2-(5-methyl-2-phenyl-1,3-thiazol-4-yl)acetamide], the “Activity (Method)” value in test [1] is given as “+ (B) (no pIC50 measurement greater than 6 against either ErbB2 or EGFR)”. Moreover, the 50% inhibitory concentration (IC50) in test [2] and in test [3] was over 1 µM each time.

For `CN(C)CCOc1cccc(Nc2nccc(-c3c(-c4cccc(NC(=O)Cc5ccsc5)c4)nn4ccccc34)n2)c1` [Example 39, N-[3-(3-{2-[(3-{[2-(dimethylamino)ethyl]oxy}phenyl)amino]-4-pyrimidinyl}pyrazolo[1,5-a]pyridin-2-yl)phenyl]-2-(3-thienyl)acetamide], the “Activity (Method)” value in test [1] is “+++ (B) (at least one pIC50 measurement of greater than 7 against either ErbB2 or EGFR)”. For the same compound, the IC50 in test [2] and in test [3] was 0.1 to 1 µM in each case.

Turning to `NCc1cccc(Nc2nccc(-c3c(-c4cccc(NC(=O)Cc5ccsc5)c4)nn4ccccc34)n2)c1` [Example 43, N-{3-[3-(2-{[3-(Aminomethyl)phenyl]amino}-4-pyrimidinyl)pyrazolo[1,5-a]pyridin-2-yl]phenyl}-2-(3-thienyl)acetamide], the “Activity (Method)” value in test [1] is “+++ (B) (at least one pIC50 measurement of greater than 7 against either ErbB2 or EGFR)”. The IC50 in test [2] is 0.1 to 1 µM; in test [3], over 1 µM.

With `O=C(Cc1cccs1)Nc1cccc(-c2nn3ccccc3c2-c2ccnc(Nc3ccc(Cl)c(OCCN4CCCC4)c3)n2)c1` [Example 44, N-[3-(3-{2-[(4-chloro-3-{[2-(1-pyrrolidinyl)ethyl]oxy}phenyl)amino]-4-pyrimidinyl}pyrazolo[1,5-a]pyridin-2-yl)phenyl]-2-(2-thienyl)acetamide], the “Activity (Method)” value in test [1] is listed as “+++ (B) (at least one pIC50 measurement of greater than 7 against either ErbB2 or EGFR)”. In addition, the IC50 in test [2] and in test [3] was over 1 µM each time.

As for `CN(C)CCOc1cc(Nc2nccc(-c3c(-c4cccc(NC(=O)Cc5cccs5)c4)nn4ccccc34)n2)ccc1Cl` [Example 45], the “Activity (Method)” value in test [1] is given as “++ (B) (at least one pIC50 measurement greater than 6 against either ErbB2 or EGFR but no measurement greater than pIC50 of 7)”. In addition, the concentration for half-maximal inhibition (IC50) in test [2] and in test [3] was over 1 µM throughout.

Take `CN(C)C1Cc2ccc(Nc3nccc(-c4c(-c5cccc(NC(=O)Cc6cccs6)c5)nn5ccccc45)n3)cc2C1` (stereo not drawn) [Example 53, N-{3-[3-(2-{[2-(Dimethylamino)-2,3-dihydro-1H-inden-5-yl]amino}pyrimidin-4-yl)pyrazolo[1,5-a]pyridin-2-yl]phenyl}-2-(2-thienyl)acetamide]: the “Activity (Method)” value in test [1] was “+++ (B) (at least one pIC50 measurement of greater than 7 against either ErbB2 or EGFR)”. The concentration for half-maximal inhibition (IC50) in test [2] and in test [3] was 0.1 to 1 µM each time.
